Reference: ChEMBL document CHEMBL5291721, “A preclinical secondary pharmacology resource illuminates target-adverse drug reaction associations of marketed drugs” (Nat Commun, 2023)

Tests used:
[1] = target: T1, 5-hydroxytryptamine receptor 1A (Homo sapiens, UniProt P08908)
T1 sequence (P08908 whole entry): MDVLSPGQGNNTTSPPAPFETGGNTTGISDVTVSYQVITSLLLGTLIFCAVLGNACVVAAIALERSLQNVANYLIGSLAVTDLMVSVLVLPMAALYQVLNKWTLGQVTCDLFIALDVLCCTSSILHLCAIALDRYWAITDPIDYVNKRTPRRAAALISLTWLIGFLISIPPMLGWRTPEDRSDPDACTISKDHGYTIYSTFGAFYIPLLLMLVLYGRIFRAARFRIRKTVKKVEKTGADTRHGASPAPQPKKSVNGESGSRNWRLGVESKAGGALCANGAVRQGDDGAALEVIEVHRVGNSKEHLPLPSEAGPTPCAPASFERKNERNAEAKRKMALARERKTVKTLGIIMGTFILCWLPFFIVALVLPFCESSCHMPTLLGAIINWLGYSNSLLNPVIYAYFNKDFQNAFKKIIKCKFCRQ

[2] = target: T2, Endothelin receptor type B (Homo sapiens, UniProt P24530)
T2 sequence (P24530 whole entry): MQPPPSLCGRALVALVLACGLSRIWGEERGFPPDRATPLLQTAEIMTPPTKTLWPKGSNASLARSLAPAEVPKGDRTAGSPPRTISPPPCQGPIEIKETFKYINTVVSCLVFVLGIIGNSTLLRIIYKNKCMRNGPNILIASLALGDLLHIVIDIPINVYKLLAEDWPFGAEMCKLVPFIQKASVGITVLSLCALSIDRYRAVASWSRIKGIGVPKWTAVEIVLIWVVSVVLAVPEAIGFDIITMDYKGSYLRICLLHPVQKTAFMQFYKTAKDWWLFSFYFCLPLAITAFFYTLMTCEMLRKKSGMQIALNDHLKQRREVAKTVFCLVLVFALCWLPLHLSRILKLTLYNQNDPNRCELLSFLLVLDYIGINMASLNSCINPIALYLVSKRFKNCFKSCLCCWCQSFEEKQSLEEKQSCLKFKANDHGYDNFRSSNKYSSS

D(4) dopamine receptor = target: T3, D(4) dopamine receptor (Homo sapiens, UniProt P21917)
T3 sequence (P21917 whole entry): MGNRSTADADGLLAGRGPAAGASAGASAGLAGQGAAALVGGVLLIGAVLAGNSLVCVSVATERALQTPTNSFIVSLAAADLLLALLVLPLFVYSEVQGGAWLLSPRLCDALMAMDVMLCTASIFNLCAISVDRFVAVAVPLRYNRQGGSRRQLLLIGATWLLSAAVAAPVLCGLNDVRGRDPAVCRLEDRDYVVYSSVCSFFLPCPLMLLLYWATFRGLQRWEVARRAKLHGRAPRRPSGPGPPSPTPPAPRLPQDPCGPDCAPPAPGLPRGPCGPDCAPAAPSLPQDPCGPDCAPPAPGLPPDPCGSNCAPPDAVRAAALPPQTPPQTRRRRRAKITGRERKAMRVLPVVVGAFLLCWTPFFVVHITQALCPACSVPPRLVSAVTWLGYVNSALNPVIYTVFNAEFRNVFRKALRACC

D(1A) dopamine receptor = D(1A) dopamine receptor (Homo sapiens, UniProt P21728)
[3] = target: Neurotensin receptor type 1 (Homo sapiens, UniProt P30989)
[4] = target: T4, Alpha-2A adrenergic receptor (Homo sapiens, UniProt P08913)
T4 sequence (P08913 whole entry): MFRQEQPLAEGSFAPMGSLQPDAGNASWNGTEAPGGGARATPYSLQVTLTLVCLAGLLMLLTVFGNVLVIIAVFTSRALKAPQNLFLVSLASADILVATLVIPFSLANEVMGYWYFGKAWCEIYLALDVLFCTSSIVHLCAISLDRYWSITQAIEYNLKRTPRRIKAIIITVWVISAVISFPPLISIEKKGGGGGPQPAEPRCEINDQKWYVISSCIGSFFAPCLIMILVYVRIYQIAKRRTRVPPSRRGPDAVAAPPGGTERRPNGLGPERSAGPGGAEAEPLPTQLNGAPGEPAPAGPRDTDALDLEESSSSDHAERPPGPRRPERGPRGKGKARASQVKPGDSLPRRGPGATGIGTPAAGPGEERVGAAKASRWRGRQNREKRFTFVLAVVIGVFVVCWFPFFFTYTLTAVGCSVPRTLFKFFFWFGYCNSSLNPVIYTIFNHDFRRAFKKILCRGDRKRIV

B1 bradykinin receptor = target: T5, B1 bradykinin receptor (Homo sapiens, UniProt P46663)
T5 sequence (P46663 whole entry): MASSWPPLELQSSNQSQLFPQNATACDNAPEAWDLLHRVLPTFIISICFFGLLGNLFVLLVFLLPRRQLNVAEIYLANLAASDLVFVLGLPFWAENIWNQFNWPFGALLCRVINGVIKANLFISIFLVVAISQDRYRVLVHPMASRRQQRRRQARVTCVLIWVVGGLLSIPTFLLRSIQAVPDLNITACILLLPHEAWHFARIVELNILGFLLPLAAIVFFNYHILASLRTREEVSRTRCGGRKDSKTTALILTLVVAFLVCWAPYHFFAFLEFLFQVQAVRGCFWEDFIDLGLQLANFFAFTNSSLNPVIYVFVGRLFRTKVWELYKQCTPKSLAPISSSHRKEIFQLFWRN

Substance-P receptor = Substance-P receptor (Homo sapiens, UniProt P25103)
[5] = target: Beta-3 adrenergic receptor (Homo sapiens, UniProt P13945)
[6] = target: T6, Corticotropin-releasing factor receptor 1 (Homo sapiens, UniProt P34998)
T6 sequence (P34998 whole entry): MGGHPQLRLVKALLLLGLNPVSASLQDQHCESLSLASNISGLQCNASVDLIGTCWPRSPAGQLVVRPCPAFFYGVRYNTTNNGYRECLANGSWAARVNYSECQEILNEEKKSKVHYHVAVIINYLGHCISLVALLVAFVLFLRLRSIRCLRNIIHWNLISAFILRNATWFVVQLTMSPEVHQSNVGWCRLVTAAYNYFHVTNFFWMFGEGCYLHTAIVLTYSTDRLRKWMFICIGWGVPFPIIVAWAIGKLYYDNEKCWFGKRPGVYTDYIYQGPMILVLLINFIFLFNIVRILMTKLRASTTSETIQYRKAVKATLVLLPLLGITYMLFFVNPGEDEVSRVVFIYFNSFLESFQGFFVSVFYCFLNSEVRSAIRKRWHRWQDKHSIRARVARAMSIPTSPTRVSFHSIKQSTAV
Note: assay procedure not described here.

Beta-3 adrenergic receptor, sequence (P13945 whole entry): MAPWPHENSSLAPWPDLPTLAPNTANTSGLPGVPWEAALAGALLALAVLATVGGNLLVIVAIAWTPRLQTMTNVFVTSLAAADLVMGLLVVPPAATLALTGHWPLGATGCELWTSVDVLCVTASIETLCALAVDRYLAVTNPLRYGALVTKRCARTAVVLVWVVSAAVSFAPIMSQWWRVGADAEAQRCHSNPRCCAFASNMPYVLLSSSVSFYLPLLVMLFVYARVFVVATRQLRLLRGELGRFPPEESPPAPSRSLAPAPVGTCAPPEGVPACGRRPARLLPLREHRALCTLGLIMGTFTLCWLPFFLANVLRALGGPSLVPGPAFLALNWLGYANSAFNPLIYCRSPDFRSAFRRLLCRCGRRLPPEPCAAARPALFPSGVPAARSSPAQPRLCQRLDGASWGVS
Neurotensin receptor type 1, sequence (P30989 whole entry): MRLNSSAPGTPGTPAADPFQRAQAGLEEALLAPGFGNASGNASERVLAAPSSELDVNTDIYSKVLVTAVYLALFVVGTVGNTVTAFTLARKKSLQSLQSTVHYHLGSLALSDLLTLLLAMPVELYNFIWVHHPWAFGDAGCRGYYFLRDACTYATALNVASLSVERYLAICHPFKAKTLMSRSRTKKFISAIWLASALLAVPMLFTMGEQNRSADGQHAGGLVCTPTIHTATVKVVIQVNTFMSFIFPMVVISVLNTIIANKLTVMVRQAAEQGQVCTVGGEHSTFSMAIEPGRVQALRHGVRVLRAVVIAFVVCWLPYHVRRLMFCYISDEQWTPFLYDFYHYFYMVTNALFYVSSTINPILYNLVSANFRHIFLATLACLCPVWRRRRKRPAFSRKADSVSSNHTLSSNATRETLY
Substance-P receptor, sequence (P25103 whole entry): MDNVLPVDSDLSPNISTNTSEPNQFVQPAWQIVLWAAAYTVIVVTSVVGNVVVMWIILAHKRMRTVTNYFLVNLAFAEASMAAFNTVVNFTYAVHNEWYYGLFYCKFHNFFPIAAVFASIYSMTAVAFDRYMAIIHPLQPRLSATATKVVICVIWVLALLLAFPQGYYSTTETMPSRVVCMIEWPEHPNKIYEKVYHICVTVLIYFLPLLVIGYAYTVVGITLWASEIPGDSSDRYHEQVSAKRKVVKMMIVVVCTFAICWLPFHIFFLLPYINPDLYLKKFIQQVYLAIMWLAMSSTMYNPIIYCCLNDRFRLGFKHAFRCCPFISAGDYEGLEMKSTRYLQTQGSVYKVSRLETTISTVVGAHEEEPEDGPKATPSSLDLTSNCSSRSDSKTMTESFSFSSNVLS
D(1A) dopamine receptor, sequence (P21728 whole entry): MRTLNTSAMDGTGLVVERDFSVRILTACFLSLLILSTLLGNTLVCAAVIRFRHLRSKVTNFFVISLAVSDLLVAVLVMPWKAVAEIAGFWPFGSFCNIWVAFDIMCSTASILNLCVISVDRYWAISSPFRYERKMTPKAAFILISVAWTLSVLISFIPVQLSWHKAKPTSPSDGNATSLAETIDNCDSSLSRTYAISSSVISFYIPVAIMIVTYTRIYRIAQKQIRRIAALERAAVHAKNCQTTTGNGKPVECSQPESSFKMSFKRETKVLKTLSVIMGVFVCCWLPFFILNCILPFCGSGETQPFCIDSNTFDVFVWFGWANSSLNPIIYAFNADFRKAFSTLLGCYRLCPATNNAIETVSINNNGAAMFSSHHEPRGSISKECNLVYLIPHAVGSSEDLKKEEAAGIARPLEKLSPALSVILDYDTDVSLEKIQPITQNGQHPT

| SMILES | AC50 [1] [µM] | AC50 [2] [µM] | AC50 (D(4) dopamine receptor) [µM] | AC50 (D(1A) dopamine receptor) [µM] | AC50 [3] [µM] | AC50 [4] [µM] | AC50 (B1 bradykinin receptor) [µM] | AC50 (Substance-P receptor) [µM] | AC50 [5] [µM] | AC50 [6] [µM] |
| --- | --- | --- | --- | --- | --- | --- | --- | --- | --- | --- |
| C[C@]1(COc2ccc(N3CCC(Oc4ccc(OC(F)(F)F)cc4)CC3)cc2)Cn2cc([N+](=O)[O-])nc2O1 | > 10 | > 30 | > 10 | > 10 | > 30 | > 10 | > 30 | > 10 | > 30 | > 30 |
| CC(=O)OCC[N+](C)(C)C [ACETYLCHOLINE] | > 10 | > 30 | > 10 | > 10 | > 30 | > 10 | > 30 | > 10 | > 30 | > 30 |
| O=C(Nc1nc(-c2cc(Cl)cs2)c(N2CCN(C3CCCCC3)CC2)s1)c1cnc(N2CCC(C(=O)O)CC2)c(Cl)c1 [AVATROMBOPAG] | > 10 | > 10 | > 10 | > 10 | > 10 | > 10 | > 10 | > 10 | – | – |
| C[C@H]1C[C@H]2[C@@H]3CCC4=CC(=O)C=C[C@]4(C)[C@@]3(Cl)[C@@H](O)C[C@]2(C)[C@@]1(O)C(=O)CO [BECLOMETHASONE] | > 10 | > 30 | > 10 | > 10 | > 30 | > 10 | > 30 | > 10 | > 30 | > 30 |
| COc1ccc2c(c1)[C@]13CCCC[C@@H]1[C@H](C2)N(C)CC3 [DEXTROMETHORPHAN] | > 10 | > 30 | > 10 | > 10 | > 30 | 11.2 | > 30 | 6.94 | > 30 | > 30 |
| CCn1cc(C(=O)O)c(=O)c2cc(F)c(N3CCNCC3)nc21 [ENOXACIN] | > 10 | > 30 | > 10 | > 10 | > 30 | > 10 | > 30 | > 10 | > 30 | > 30 |
| COCCCOc1ccnc(C[S+]([O-])c2nc3ccccc3[nH]2)c1C (centres undefined) [RABEPRAZOLE] | > 10 | > 30 | > 10 | > 10 | > 30 | > 10 | > 30 | > 10 | > 30 | > 30 |
| OCCN1CCN(CC/C=C2/c3ccccc3Sc3ccc(Cl)cc32)CC1 [ZUCLOPENTHIXOL] | – | – | – | – | – | 7.34 | – | – | – | – |
